Reference: US20030229108A1, “Barbituric acid analogs as therapeutic agents” (priority 2000, published 2003)
Where two headings read alike, the source gives them in different places.

Molecular target: T1, interaction between HIF-1α and p300 (His-HIF-1α / GST-p300) (Homo sapiens, UniProt Q09472+Q16665)
T1 construct: corresponding to the C-terminal 390 amino acids into vector pET28a; A plasmid containing the N-terminal 595 amino acids of human p300; made in house; host or cells: E. coli
Assay: Primary assay: fluorescence-based (DELFIA) screening assay for inhibition of the HIF-1α/p300 interaction
Type: binding
Description: Candidate compounds were assessed for their ability to inhibit the interaction between HIF-1α and p300 using a high throughput fluorescence-based screening assay (DELFIA) as follows.
A plasmid expressing His-HIF-1α fusion protein was constructed by PCR, by amplifying and subcloning a fragment of the human HIF-1α cDNA (NCBI GenBank, accession number AH006957) corresponding to the C-terminal 390 amino acids into vector pET28a (Novagen®, Madison, Wis., USA). A plasmid containing the N-terminal 595 amino acids of human p300 (NCBI GenBank, accession number U01877) inserted into vector pGEX2T (Pharmacia®, Little Chalfont, Bucks, UK) was used for the production of GST-p300 fusion protein. The recombinant proteins were produced in E. coli. His-HIF-1α was purified using Ni-NTA agarose beads, according to manufacture's method (Qiagen®, Crawley, West Sussex, UK). GST-p300 was purified using Glutathione-sepharose beads (Amersham Pharmacia®, Little Chalfont, Bucks, UK) according to manufacturer's instructions. A titration of every batch of p300 was carried out in order to determine the optimum dilution of the protein to obtain at least a 10:1 ratio signal to noise in the binding assay.
The assay was performed in 96-well Polysorb plates (Nalge Nunc International®, Rochester, N.Y., USA) as follows. Plates were coated with His-HIF-1α at 50 ng/well in […] and incubated overnight at 4° C. The plates were then washed 3 times with deionized water and blocked with 100 μL/well 3% BSA in PBS for 3 hours at 4° C. After washing 3 times as before, GST-p300 was added at the appropriate dilution (1:800 in this screening) in binding buffer (50 mM HEPES pH 7.5, 50 mM NaCl, 0.1% BSA, 0.5 mM DTT). The reaction was incubated at room temperature for 1 hour. Plates were washed 3 times and anti-GST Europium-conjugated antibody (from Wallac®, Turku, Finland) was added at 50 ng/well in […]. After 45 minutes incubation, plates were washed 3 times as before. Then, 100 μL/well enhancement solution (from Wallac®, Catalog No. 1244-105) was added and allowed to react for 15 minutes at room temperature. Plates were read on a Victor 2 plate reader (from Wallac®).

[1] = read-out: Primary Assay Inhibition IC50

T1 sequence (Q16665 437-826 limits assumed): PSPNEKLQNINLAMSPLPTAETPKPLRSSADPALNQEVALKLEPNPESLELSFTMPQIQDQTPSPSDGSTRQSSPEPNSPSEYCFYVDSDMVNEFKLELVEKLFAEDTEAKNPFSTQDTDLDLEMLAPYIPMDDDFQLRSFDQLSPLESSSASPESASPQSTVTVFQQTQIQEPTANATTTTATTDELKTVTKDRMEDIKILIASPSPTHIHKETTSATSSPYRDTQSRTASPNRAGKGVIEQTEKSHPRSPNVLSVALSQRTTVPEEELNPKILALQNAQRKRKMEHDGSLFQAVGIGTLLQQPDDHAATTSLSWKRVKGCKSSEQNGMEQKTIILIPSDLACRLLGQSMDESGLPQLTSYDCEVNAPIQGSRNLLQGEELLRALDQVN
T1 sequence (Q09472 1-595 limits assumed): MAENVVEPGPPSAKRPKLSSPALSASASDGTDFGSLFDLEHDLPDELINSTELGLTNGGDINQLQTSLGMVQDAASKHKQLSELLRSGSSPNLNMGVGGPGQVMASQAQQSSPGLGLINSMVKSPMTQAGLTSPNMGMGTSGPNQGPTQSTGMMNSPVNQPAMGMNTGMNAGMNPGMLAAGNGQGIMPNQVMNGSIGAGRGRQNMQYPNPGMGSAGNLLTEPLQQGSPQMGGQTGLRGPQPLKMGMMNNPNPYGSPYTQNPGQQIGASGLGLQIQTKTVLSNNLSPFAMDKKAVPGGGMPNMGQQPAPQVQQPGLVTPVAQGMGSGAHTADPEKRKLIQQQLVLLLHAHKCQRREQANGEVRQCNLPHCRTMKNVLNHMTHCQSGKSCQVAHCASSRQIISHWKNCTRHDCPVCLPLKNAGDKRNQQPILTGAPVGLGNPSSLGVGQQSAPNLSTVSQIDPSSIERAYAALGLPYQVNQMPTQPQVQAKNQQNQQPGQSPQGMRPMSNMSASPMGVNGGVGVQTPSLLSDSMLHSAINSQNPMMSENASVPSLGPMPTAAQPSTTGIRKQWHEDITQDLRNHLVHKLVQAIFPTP

| Compound | IC50 [µM] | IC50 [1] [µM] |
| --- | --- | --- |
| COc1ccc(C=C2C(=O)NC(=S)NC2=O)cc1OC [PX075262, 5-(3,4-Dimethoxy-benzylidene)-2-thioxo-dihydro-pyrimidine-4,6-dione] | 65 | – |
| CCOc1ccc(C=C2C(=O)NC(=O)NC2=O)cc1 [PX072012] | 175 | – |
| O=C1NC(=O)C(=Cc2cccc(OCc3ccccc3)c2)C(=O)N1 [PX075245] | 125 | – |
| O=C1NC(=O)C(=C/C=C/c2ccccc2)C(=O)N1 [PX089370] | 225 | – |
| COc1ccc(OC)c(N2C(=O)/C(=C/c3ccco3)C(=O)NC2=S)c1 [PX106274] | 29 | – |
| O=C1NC(=S)NC(=O)C1=C/C=N/Nc1ccccc1 [PX089619] | 180 | – |
| O=C1NC(=S)NC(=O)C1=Cc1ccc(Cl)cc1 [PX089640, 5-(4-Chloro-benzylidene)-2-thioxo-dihydro-pyrimidine-4,6-dione] | 100 | – |
| COc1ccccc1C=C1C(=O)NC(=S)NC1=O [PX105993, 5-(2-Methoxy-benzylidene)-2-thioxo-dihydro-pyrimidine-4,6-dione] | 80 | – |
| Cn1c(=O)c2c(ncn2CC(O)CN2CCN(c3cccc(Cl)c3)CC2)n(C)c1=O (stereo not shown) [P2082796] | – | 150 |
| Cc1ccccc1N1C(=O)/C(=C/c2ccco2)C(=O)NC1=S [PX106130] | 29 | – |
| N=c1c2nc(-c3ccc4c(c3)OCO4)[nH]c(=O)c2[nH]c(=O)n1-c1ccc(Cl)cc1 [P2082202] | – | 250 |
| O=C1NC(=O)C(=Cc2c(F)cccc2Cl)C(=O)N1 [PX069119] | 250 | – |
| COc1cc(C=C2C(=O)NC(=O)NC2=O)c([N+](=O)[O-])cc1OCc1ccccc1 [PX069153] | 200 | – |
| O=C1NC(=O)C(=Cc2ccc(Cl)c(Cl)c2)C(=O)N1 [PX072002] | 225 | – |
| COc1ccc(C=C2C(=O)NC(=S)NC2=O)cc1OCc1ccccc1 [PX105990, 5-(3-Benzyloxy-4-methoxy-benzylidene)-2-thioxo-dihydro-pyrimidine-4,6-dione] | 20 | – |
| COc1ccc(C=C2C(=O)N(c3ccccc3)C(=S)N(c3ccccc3)C2=O)cc1OC [PX089646] | 100 | – |
| CC(=O)Nc1ccc(C=C2C(=O)NC(=S)NC2=O)cc1 [PX089632, N-[4-(4,6-Dioxo-2-thioxo-tetrahydro-pyrimidin-5-ylidenemethyl)-phenyl]-acetamide] | 15 | – |

| Compound | IC50 [µM] | IC50 [1] [µM] |
| --- | --- | --- |
| O=C1NC(=O)C(=C/C=N/Nc2ccccc2)C(=O)N1 [PX089620] | 80 | – |
| COc1ccc(OC)c(C=C2C(=O)NC(=O)NC2=O)c1 [PX075257] | 350 | – |
| O=C1NC(=S)N(c2ccc(Cl)cc2)C(=O)/C1=C/C=C/c1ccco1 [PX106291] | 80 | – |
| O=C1NC(=O)C(=Cc2ccc3c(c2)OCO3)C(=O)N1 [PX075240] | 100 | – |
| O=C1NC(=O)C(=Cc2ccc(O)cc2)C(=O)N1 [PX089377] | 400 | – |
| N=c1c2nc(-c3ccccc3)[nH]c(=O)c2[nH]c(=O)n1-c1ccccc1 [P2082132] | – | 125 |
| COc1ccc(-c2nc3c(=N)n(-c4cccc(C(F)(F)F)c4)c(=O)[nH]c3c(=O)[nH]2)cc1OC [P2082229] | – | 125 |
| CCOc1ccccc1C=C1C(=O)NC(=O)NC1=O [PX075248] | 450 | – |
| O=C1NC(=S)N(c2ccc(F)cc2)C(=O)/C1=C/c1ccc2c(c1)OCO2 [PX106255] | 3 | – |
| COc1ccc(-c2nc3c(=N)n(-c4ccc(Cl)cc4)c(=O)[nH]c3c(=O)[nH]2)cc1 [PX081770] | – | 125 |
| COc1cc(C=C2C(=O)NC(=O)NC2=O)ccc1O [PX072008] | 300 | – |
| O=C1NC(=O)C(=Cc2ccc(O)c(O)c2)C(=O)N1 [PX089374] | 230 | – |
| O=C1NC(=S)NC(=O)C1=Cc1cccs1 [PX089638] | 130 | – |
| O=C1NC(=O)C(=Cc2ccccc2)C(=O)N1 [PX089368] | 350 | – |
| COc1cccc(C=C2C(=O)NC(=O)NC2=O)c1OC [PX089371] | 400 | – |
| COc1cccc(-c2nc3c(=N)n(-c4ccc(Cl)cc4)c(=O)[nH]c3c(=O)[nH]2)c1O [P2081958] | – | 125 |
| COc1ccc(C=C2C(=O)NC(=O)NC2=O)cc1 [PX089375] | 200 | – |
